This assay addresses CDK2/Cyclin E1 (Homo sapiens (Human), UniProt P24941). Nature of the assay: CDK2/Cyclin E1 HTRF enzyme activity assay (Example A). The assay is classed as biochemical. Particulars: 1 mM ATP. The protocol: Assays were conducted in white 384-well polystyrene plates in a final reaction volume of 8 μL. […] HTRF signals were read after 1 hour at room temperature on a PHERAstar FS plate reader (BMG Labtech). Data was analyzed with IDBS XLFit and GraphPad Prism 5.0 software using a three or four parameter dose response curve to determine IC50 for each compound.
In general terms: Time-resolved FRET reads energy transfer from a long-lived donor to a nearby acceptor.

Molecules are shown by their SMILES.

Usually IC50 stands for the concentration that gives 50% inhibition. Lower therefore signals greater potency. Molecule `CS(=O)(=O)N1CCC(Nc2ncc(C(F)(F)F)c(-c3cn(-c4ccc(C(F)(F)F)nc4C#N)cn3)n2)CC1` [Example 64, 3-(4-(2-((1-(Methylsulfonyl)piperidin-4-yl)amino)-5-(trifluoromethyl)pyrimidin-4-yl)-1H-imidazol-1-yl)-6-(trifluoromethyl)picolinonitrile] returned an IC50 of at most 50 nM.
For `CS(=O)(=O)N1CCC(Nc2ncc(C(F)(F)F)c(-c3cn(-c4cccc(F)c4Cl)cn3)n2)CC1` [Example 65, 4-(1-(2-Chloro-3-fluorophenyl)-1H-imidazol-4-yl)-N-(1-(methylsulfonyl)piperidin-4-yl)-5-(trifluoromethyl)pyrimidin-2-amine] the value was at most 50 nM; for `CS(=O)(=O)N1CCC(Nc2ncc(C(F)(F)F)c(-c3cn(-c4cnccc4C(F)(F)F)cn3)n2)CC1` [Example 66, N-(1-(Methylsulfonyl)piperidin-4-yl)-5-(trifluoromethyl)-4-(1-(4-(trifluoromethyl)pyridin-3-yl)-1H-imidazol-4-yl)pyrimidin-2-amine], at most 50 nM; for `CS(=O)(=O)N1CCC(Nc2ncc(C(F)(F)F)c(-c3cn(-c4cnccc4C#N)cn3)n2)CC1` [Example 67, 3-(4-(2-((1-(Methylsulfonyl)piperidin-4-yl)amino)-5-(trifluoromethyl)pyrimidin-4-yl)-1H-imidazol-1-yl)isonicotinonitrile], at most 50 nM.
The molecule `CS(=O)(=O)N1CC[C@H](Nc2ncc(C(F)(F)F)c(-c3cn(-c4ccc(C(F)(F)F)cc4C#N)cn3)n2)[C@H](F)C1` [Example 68, 2-(4-(2-(((3R,4S)-3-Fluoro-1-(methylsulfonyl)piperidin-4-yl)amino)-5-(trifluoromethyl)pyrimidin-4-yl)-1H-imidazol-1-yl)-5-(trifluoromethyl)benzonitrile] came in with an IC50 of at most 50 nM.
For `CS(=O)(=O)N1CC[C@H](Nc2ncc(C(F)(F)F)c(-c3cn(-c4cccc(C#N)c4C(F)(F)F)cn3)n2)[C@H](F)C1` [Example 69, 3-(4-(2-(((3R,4S)-3-Fluoro-1-(methylsulfonyl)piperidin-4-yl)amino)-5-(trifluoromethyl)pyrimidin-4-yl)-1H-imidazol-1-yl)-2-(trifluoromethyl)benzonitrile] the value was at most 50 nM.
For `COc1ccc(-n2cnc(-c3nc(NC4CCN(S(C)(=O)=O)CC4)ncc3C(F)(F)F)c2)c(C(F)(F)F)n1` [Example 70, 4-(1-(6-Methoxy-2-(trifluoromethyl)pyridin-3-yl)-1H-imidazol-4-yl)-N-(1-(methylsulfonyl)piperidin-4-yl)-5-(trifluoromethyl)pyrimidin-2-amine] the value was at most 50 nM; for `CC(C)(O)CCOc1ccc(-n2cnc(-c3nc(NC4CCN(S(C)(=O)=O)CC4)ncc3C(F)(F)F)c2)c(C(F)(F)F)n1` [Example 71, 2-Methyl-4-((5-(4-(2-((1-(methylsulfonyl)piperidin-4-yl)amino)-5-(trifluoromethyl)pyrimidin-4-yl)-1H-imidazol-1-yl)-6-(trifluoromethyl)pyridin-2-yl)oxy)butan-2-ol], at most 50 nM.
The molecule `CN(C)CCOc1ccc(-n2cnc(-c3nc(NC4CCN(S(C)(=O)=O)CC4)ncc3C(F)(F)F)c2)c(C(F)(F)F)n1` [Example 72, 4-(1-(6-(2-(Dimethylamino)ethoxy)-2-(trifluoromethyl)pyridin-3-yl)-1H-imidazol-4-yl)-N-(1-(methylsulfonyl)piperidin-4-yl)-5-(trifluoromethyl)pyrimidin-2-amine] returned a 50% inhibitory concentration (IC50) of at most 50 nM.
The result for `CC(CN(C)C)Oc1ccc(-n2cnc(-c3nc(NC4CCN(S(C)(=O)=O)CC4)ncc3C(F)(F)F)c2)c(C(F)(F)F)n1` (centres unmarked) [Example 73, 4-(1-(6-((1-(Dimethylamino)propan-2-yl)oxy)-2-(trifluoromethyl)pyridin-3-yl)-1H-imidazol-4-yl)-N-(1-(methylsulfonyl)piperidin-4-yl)-5-(trifluoromethyl)pyrimidin-2-amine] reads at most 50 nM; that for `CC(C#N)Oc1ccc(-n2cnc(-c3nc(NC4CCN(S(C)(=O)=O)CC4)ncc3C(F)(F)F)c2)c(C(F)(F)F)n1` (centres unmarked) [Example 74, 2-((5-(4-(2-((1-(Methylsulfonyl)piperidin-4-yl)amino)-5-(trifluoromethyl)pyrimidin-4-yl)-1H-imidazol-1-yl)-6-(trifluoromethyl)pyridin-2-yl)oxy)propanenitrile], at most 50 nM.
The result for `COc1ccc(-n2cnc(-c3nc(NC4CCN(S(C)(=O)=O)CC4)ncc3C(F)(F)F)c2)c(C(F)F)n1` [Example 75, 4-(1-(2-(Difluoromethyl)-6-methoxypyridin-3-yl)-1H-imidazol-4-yl)-N-(1-(methylsulfonyl)piperidin-4-yl)-5-(trifluoromethyl)pyrimidin-2-amine] reads at most 50 nM; that for `CCN(C)CCOc1ccc(-n2cnc(-c3nc(NC4CCN(S(C)(=O)=O)CC4)ncc3C(F)(F)F)c2)c(C#N)n1` [Example 76, 6-(2-(Ethyl(methyl)amino)ethoxy)-3-(4-(2-((1-(methylsulfonyl)piperidin-4-yl)amino)-5-(trifluoromethyl)pyrimidin-4-yl)-1H-imidazol-1-yl)picolinonitrile], at most 50 nM; that for `CN(C)Cc1cccc(-n2cnc(-c3nc(NC4CCN(S(C)(=O)=O)CC4)ncc3C(F)(F)F)c2)c1Cl` [Example 77, 4-(1-(2-Chloro-3-((dimethylamino)methyl)phenyl)-1H-imidazol-4-yl)-N-(1-(methylsulfonyl)piperidin-4-yl)-5-(trifluoromethyl)pyrimidin-2-amine], at most 50 nM.
Take `CN1CCN(Cc2cccc(-n3cnc(-c4nc(NC5CCN(S(C)(=O)=O)CC5)ncc4C(F)(F)F)c3)c2Cl)CC1` [Example 78, 4-(1-(2-Chloro-3-((4-methylpiperazin-1-yl)methyl)phenyl)-1H-imidazol-4-yl)-N-(1-(methylsulfonyl)piperidin-4-yl)-5-(trifluoromethyl)pyrimidin-2-amine]: the 50% inhibitory concentration (IC50) is at most 50 nM.
For the molecule `CC1(NCc2cccc(-n3cnc(-c4nc(NC5CCN(S(C)(=O)=O)CC5)ncc4C(F)(F)F)c3)c2Cl)CCOCC1` [Example 79, 4-(1-(2-Chloro-3-(((4-methyltetrahydro-2H-pyran-4-yl)amino)methyl)phenyl)-1H-imidazol-4-yl)-N-(1-(methylsulfonyl)piperidin-4-yl)-5-(trifluoromethyl)pyrimidin-2-amine], the IC50 was at most 50 nM.
On to `CNCc1cccc(-n2cnc(-c3nc(NC4CCN(S(C)(=O)=O)CC4)ncc3C(F)(F)F)c2)c1Cl` [Example 80, 4-(1-(2-Chloro-3-((methylamino)methyl)phenyl)-1H-imidazol-4-yl)-N-(1-(methylsulfonyl)piperidin-4-yl)-5-(trifluoromethyl)pyrimidin-2-amine], for which the IC50 was at most 50 nM.
Molecule `CS(=O)(=O)N1CCC(Nc2ncc(C(F)(F)F)c(-c3cn(-c4cccc(CNC5CC5)c4Cl)cn3)n2)CC1` [Example 81, 4-(1-(2-Chloro-3-((cyclopropylamino)methyl)phenyl)-1H-imidazol-4-yl)-N-(1-(methylsulfonyl)piperidin-4-yl)-5-(trifluoromethyl)pyrimidin-2-amine] gave an IC50 of at most 50 nM.
The result for `CS(=O)(=O)N1CCC(Nc2ncc(C(F)(F)F)c(-c3cn(-c4cccc(CN5CC(O)C5)c4Cl)cn3)n2)CC1` [Example 82, 1-(2-Chloro-3-(4-(2-((1-(methylsulfonyl)piperidin-4-yl)amino)-5-(trifluoromethyl)pyrimidin-4-yl)-1H-imidazol-1-yl)benzyl)azetidin-3-ol] reads at most 50 nM.
The result for `CC(O)c1cccc(-n2cnc(-c3nc(NC4CCN(S(C)(=O)=O)CC4)ncc3C(F)(F)F)c2)c1Cl` (centres unmarked) [Example 83, 1-(2-Chloro-3-(4-(2-((1-(methylsulfonyl)piperidin-4-yl)amino)-5-(trifluoromethyl)pyrimidin-4-yl)-1H-imidazol-1-yl)phenyl)ethan-1-ol] reads at most 50 nM; that for `CS(=O)(=O)N1CCC(Nc2ncc(C(F)(F)F)c(-c3cn(-c4cccc(CO)c4Cl)cn3)n2)CC1` [Example 84, (2-Chloro-3-(4-(2-((1-(methylsulfonyl)piperidin-4-yl)amino)-5-(trifluoromethyl)pyrimidin-4-yl)-1H-imidazol-1-yl)phenyl)methanol], at most 50 nM.
In turn, `CCC(O)c1cccc(-n2cnc(-c3nc(NC4CCN(S(C)(=O)=O)CC4)ncc3C(F)(F)F)c2)c1Cl` (centres unmarked) [Example 85, 1-(2-Chloro-3-(4-(2-((1-(methylsulfonyl)piperidin-4-yl)amino)-5-(trifluoromethyl)pyrimidin-4-yl)-1H-imidazol-1-yl)phenyl)propan-1-ol] had an IC50 of at most 50 nM.
For `CS(=O)(=O)N1CCC(Nc2ncc(C(F)(F)F)c(-c3cn(-c4cccc(C(O)C5CC5)c4Cl)cn3)n2)CC1` (centres unmarked) [Example 86, (2-chloro-3-(4-(2-((1-(methylsulfonyl)piperidin-4-yl)amino)-5-(trifluoromethyl)pyrimidin-4-yl)-1H-imidazol-1-yl)phenyl)(cyclopropyl)methanol] the value was at most 50 nM; for `CCS(=O)(=O)N1CCC(Nc2ncc(C(F)(F)F)c(-c3cn(-c4ccc(C)nc4C#N)cn3)n2)CC1` [Example 87, 3-(4-(2-((1-(Ethylsulfonyl)piperidin-4-yl)amino)-5-(trifluoromethyl)pyrimidin-4-yl)-1H-imidazol-1-yl)-6-methylpicolinonitrile], at most 50 nM; for `Cn1cc(S(=O)(=O)N2CCC(Nc3ncc(C(F)(F)F)c(-c4cn(-c5cccnc5C(F)F)cn4)n3)CC2)cn1` [Example 88, 4-(1-(2-(Difluoromethyl)pyridin-3-yl)-1H-imidazol-4-yl)-N-(1-((1-methyl-1H-pyrazol-4-yl)sulfonyl)piperidin-4-yl)-5-(trifluoromethyl) pyrimidin-2-amine], at most 50 nM.
The result for `CCS(=O)(=O)N1CCC(Nc2ncc(C(F)(F)F)c(-c3cn(-c4cccnc4C#N)cn3)n2)CC1` [Example 89, 3-(4-(2-((1-(Ethylsulfonyl)piperidin-4-yl)amino)-5-(trifluoromethyl)pyrimidin-4-yl)-1H-imidazol-1-yl)picolinonitrile] reads at most 50 nM.
